The results in this text go back to publication PMC6121469 (International Journal of Molecular Sciences, 2018).

Test [1] concerns the target T1, TASK-3 WT channel (Cavia porcellus, UniProt Q9JL58). The following applies: +80 mV, HEK-293 cells.
In test [2] the target is TASK-3/2loop2 (cap-less TASK-3 channel) (Cavia porcellus, UniProt Q9JL58). The following applies: symmetrical K+ conditions, HEK-293 cells.
For another test, the target named is TASK-3/2loop2/Y99A (Cavia porcellus, UniProt Q9JL58). The following applies: HEK-293 cells.
The next test has as its target TASK-3/2loop2/Y205A (Cavia porcellus, UniProt Q9JL58, Y205A, form not given). The following applies: HEK-293 cells.
The next test concerns the target TASK-3/2loop2/Y99A/Y205A (Cavia porcellus, UniProt Q9JL58, Y205A, form not given). The following applies: HEK-293 cells; similar to TASK-3 WT.
A further test concerns the target Kv2.1 channel (Rattus norvegicus, UniProt P15387). As to the kind of experiment: cell-based. The following applies: HEK293, read-out: inhibition of Kv2.1 currents.
Test [3] deals with T1, TASK-3 WT channel. The test can be described thus: cell-based.

In general, inhibition refers to how much of the control response was suppressed. Broadly, the IC50 is the midpoint of a concentration-inhibition curve. Lower therefore signals greater potency.

TASK-3/2loop2/Y99A, sequence (Q9JL58 with tags, fused parts or gaps): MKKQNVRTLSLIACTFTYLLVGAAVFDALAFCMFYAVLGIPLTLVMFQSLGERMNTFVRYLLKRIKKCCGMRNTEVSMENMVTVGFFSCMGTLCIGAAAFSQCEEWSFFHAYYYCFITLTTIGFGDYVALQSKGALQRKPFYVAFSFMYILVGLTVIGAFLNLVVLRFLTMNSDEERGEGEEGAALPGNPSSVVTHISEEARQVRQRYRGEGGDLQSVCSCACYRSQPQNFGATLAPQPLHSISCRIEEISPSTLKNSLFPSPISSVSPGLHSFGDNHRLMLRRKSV
TASK-3/2loop2 (cap-less TASK-3 channel), sequence (Q9JL58 with tags, fused parts or gaps): as above
TASK-3/2loop2/Y205A, sequence (Q9JL58 with tags, fused parts or gaps Y205A, form open): as the sequence (Q9JL58 with tags, fused parts or gaps) above, with Y127A counted along it
T1 sequence (Q9JL58 whole entry): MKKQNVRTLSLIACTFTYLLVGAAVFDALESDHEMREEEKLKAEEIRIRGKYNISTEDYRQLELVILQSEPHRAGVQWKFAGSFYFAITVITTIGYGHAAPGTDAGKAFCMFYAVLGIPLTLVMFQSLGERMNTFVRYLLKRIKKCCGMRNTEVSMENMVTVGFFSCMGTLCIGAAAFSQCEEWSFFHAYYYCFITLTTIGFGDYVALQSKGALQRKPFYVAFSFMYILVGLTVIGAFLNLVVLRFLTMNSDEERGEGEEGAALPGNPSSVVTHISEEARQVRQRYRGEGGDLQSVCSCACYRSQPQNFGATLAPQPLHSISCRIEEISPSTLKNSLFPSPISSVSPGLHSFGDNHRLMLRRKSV
Kv2.1 channel, sequence (P15387 whole entry): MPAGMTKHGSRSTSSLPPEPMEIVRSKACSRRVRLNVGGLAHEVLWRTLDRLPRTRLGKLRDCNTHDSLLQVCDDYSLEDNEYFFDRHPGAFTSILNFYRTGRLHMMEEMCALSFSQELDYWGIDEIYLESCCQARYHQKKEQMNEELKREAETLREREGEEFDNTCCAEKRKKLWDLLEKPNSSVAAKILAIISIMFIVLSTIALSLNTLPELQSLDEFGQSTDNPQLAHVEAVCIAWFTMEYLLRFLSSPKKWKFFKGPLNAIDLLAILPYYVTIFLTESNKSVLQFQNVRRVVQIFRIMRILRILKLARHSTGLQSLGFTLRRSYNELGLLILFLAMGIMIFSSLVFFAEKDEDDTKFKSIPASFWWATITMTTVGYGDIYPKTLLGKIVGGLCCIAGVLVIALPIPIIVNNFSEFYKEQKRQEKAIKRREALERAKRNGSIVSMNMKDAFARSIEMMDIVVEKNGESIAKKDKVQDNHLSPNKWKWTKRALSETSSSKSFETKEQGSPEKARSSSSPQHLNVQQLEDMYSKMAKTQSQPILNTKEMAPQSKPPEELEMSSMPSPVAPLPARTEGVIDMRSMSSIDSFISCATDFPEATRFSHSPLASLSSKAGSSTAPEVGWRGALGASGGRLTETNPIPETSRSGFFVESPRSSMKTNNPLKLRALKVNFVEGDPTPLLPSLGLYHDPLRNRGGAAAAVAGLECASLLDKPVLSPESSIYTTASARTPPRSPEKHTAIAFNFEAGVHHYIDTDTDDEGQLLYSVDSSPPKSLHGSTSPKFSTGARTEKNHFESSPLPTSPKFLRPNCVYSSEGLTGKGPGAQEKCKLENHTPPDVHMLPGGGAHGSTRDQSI
TASK-3/2loop2/Y99A/Y205A, sequence (Q9JL58 with tags, fused parts or gaps Y205A, form open): as the sequence (Q9JL58 with tags, fused parts or gaps) above, with Y127A counted along it

On to `CC[N+](CC)(CC)CC` [TEA, tetraethylammonium], for which the “inhibition at saturating TEA concentrations” value against TASK-3 WT channel [1] came to 30%. Also, the maximum inhibition in test [2] came to 90%. Moreover, the IC50 in test [2] (n = 4) amounted to 11.8 ± 0.4 mM; at TASK-3/2loop2/Y99A (n = 4), 17.3 ± 1.8 mM; at TASK-3/2loop2/Y205A (n = 3), 63.9 ± 5.4 mM; at TASK-3 WT channel [3], 12.5 ± 3.4 mM. Besides, the maximal inhibition at TASK-3/2loop2/Y99A stood at 46%; on TASK-3/2loop2/Y205A, 59%. At TASK-3/2loop2/Y99A/Y205A, the “sensitivity to TEA blockade” value is on record as “essentially insensitive”. For the same compound, the inhibition at 100000 µM at Kv2.1 channel was around 85%.
